Data taken from patent US6762207B1, “(E)-styryl sulfone anticancer agents” (priority 1999, dated 2004).

Columns and labels:
Assay type in all cases: cell-based
Design in all cases: dose or concentration left out as unconfirmed
Conditions in all cases: 96 hours
[1] = tested on: breast tumor cell line BT-20; experiment: Trypan blue exclusion viability assay, BT20
Method: (§1) MCF-7 is estrogen-responsive, while BT-20 is an estrogen-unresponsive cell line. NIH/3T3 and HFL are normal murine and human fibroblasts, respectively. MCF-7, BT-20, DLD-1 and H157 were grown in Dulbecco's modified Eagle's medium (DMEM) containing 10% fetal bovine serum supplemented with penicillin and streptomycin. DU145 was cultured in RPMI with 10% fetal bovine serum containing penicillin and streptomycin. […] All cell cultures were maintained at 37° C. in a humidified atmosphere of 5% CO2. Cells were treated with test compound at 2.5 mM concentration and cell viability was determined after 96 hours by the Trypan blue exclusion method.

[2] = tested on: breast tumor cell line MCF-7; experiment: Trypan blue exclusion viability assay, MCF-7
Method: as §1

[3] = tested on: prostate tumor cell line DU-145; experiment: Trypan blue exclusion viability assay, DU145
Method: as §1

[4] = tested on: colorectal carcinoma cell line DLD-1; experiment: Trypan blue exclusion viability assay, DLD-1
Method: as §1

[5] = tested on: non-small cell lung carcinoma cell line H157; experiment: Trypan blue exclusion viability assay, H157
Method: as §1

| Structure (SMILES) | Cell death, BT20 [1] | Cell death, MCF-7 [2] | Cell death, DU145 [3] | Cell death, DLD-1 [4] | Cell death, H157 [5] |
| --- | --- | --- | --- | --- | --- |
| O=S(=O)(/C=C/c1ccc(F)cc1)Cc1ccc(C(F)(F)F)cc1 [Example 1, (E)-4-Fluorostyryl-4-trifluoromethylbenzylsulfone] | +++ (40-50% = +++) | +++ (40-50% = +++) | +++ (40-50% = +++) | +++ (40-50% = +++) | ++ (10-15% = ++) |
| O=S(=O)(/C=C/c1ccc(Cl)cc1)Cc1ccc(C(F)(F)F)cc1 [Example 2, (E)-4-Chlorostyryl-4-trifluoromethylbenzylsulfone] | ++ (10-15% = ++) | ++ (10-15% = ++) | ++ (10-15% = ++) | ++ (10-15% = ++) |  |
| O=S(=O)(/C=C/c1ccc(F)cc1)Cc1ccc(Cl)cc1Cl [Example 4, (E)-4-Fluorostyryl-2,4-dichlorobenzylsulfone] | ++ (10-15% = ++) | ++ (10-15% = ++) | ++ (10-15% = ++) |  | + (5-10%: = +) |
| O=S(=O)(/C=C/c1ccc(Cl)cc1)Cc1ccc(Cl)cc1Cl [Example 5, (E)-4-Chlorostyryl-2,4-dichlorobenzylsulfone] |  | +++ (40-50% = +++) | + (5-10%: = +) | ++ (10-15% = ++) | ++ (10-15% = ++) |
| O=S(=O)(/C=C/c1ccc(F)cc1)Cc1ccc(Cl)c(Cl)c1 [Example 6, (E)-4-Fluorostyryl-3,4-dichlorobenzylsulfone] | ++++ (50-60% = ++++) | ++++ (50-60% = ++++) | ++++ (50-60% = ++++) |  |  |
| O=[N+]([O-])c1ccc(CS(=O)(=O)/C=C/c2ccc(F)cc2)cc1 [Example 9, (E)-4-Fluorostyryl-4-nitrobenzylsulfone] | ++ (10-15% = ++) | ++ (10-15% = ++) | ++ (10-15% = ++) | − (0% = −) | ++ (10-15% = ++) |
| N#Cc1ccc(CS(=O)(=O)/C=C/c2ccc(Br)cc2)cc1 [Example 12, (E)-4-Bromostyryl-4-cyanobenzylsulfone] |  | − (0% = −) | − (0% = −) | − (0% = −) | + (5-10%: = +) |
| O=S(=O)(/C=C/c1ccc(F)c(F)c1)Cc1ccc(Cl)cc1 [Example 13, (E)-3,4-Difluorostyryl-4-chlorobenzylsulfone] |  | − (0% = −) | − (0% = −) | − (0% = −) | − (0% = −) |
| O=S(=O)(/C=C/c1ccc(F)c(Cl)c1)Cc1ccc(Cl)cc1 [Example 14, (E)-3-Chloro-4-fluorostyryl-4-chlorobenzylsulfone] |  | − (0% = −) | − (0% = −) | − (0% = −) | − (0% = −) |
| O=S(=O)(/C=C/c1ccc(F)cc1Cl)Cc1ccc(Cl)cc1 [Example 15, (E)-2-Chloro-4-fluorostyryl-4-chlorobenzylsulfone] |  | +++++ (Above 80% = +++++) | +++++ (Above 80% = +++++) | +++++ (Above 80% = +++++) | +++++ (Above 80% = +++++) |
